How the values were obtained:
Assay type in all cases: in vivo
[1] = test system: sedge, umbrella (small-flower umbrella sedge, Cyperus difformis); experiment: Test B flooded paddy test; conditions: Flood, 250 g ai/ha; 0 to 100 scale where 0 is no effect and 100 is complete control; 13 to 15 d
Method in brief: (§1)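 Evaluation by eye, against controls, occurred 13–15 d post-treatment in a greenhouse, using a 0 (no effect) to 100 (complete control) scale. Application was into the paddy water, 3 cm deep over the soil, on 2-leaf plants.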

[2] = test system: barnyardgrass (Echinochloa crus-galli); experiment: Test B flooded paddy test; conditions: Flood, 250 g ai/ha; 0 to 100 scale where 0 is no effect and 100 is complete control; 13 to 15 d
Method in brief: as §1

[3] = test system: ducksalad (Heteranthera limosa); experiment: Test B flooded paddy test; conditions: Flood, 250 g ai/ha; 0 to 100 scale where 0 is no effect and 100 is complete control; 13 to 15 d
Method in brief: as §1

[4] = test system: rice (Oryra sativa); experiment: Test B flooded paddy test; conditions: Flood, 250 g ai/ha; 0 to 100 scale where 0 is no effect and 100 is complete control; 13 to 15 d
Method in brief: as §1

[5] = test system: Galium (catchweed bedstraw, Galium aparine); experiment: Test A postemergence; conditions: for Galium plant response rating: 125 g ai/ha, postemergence, visual injury rating on 0 to 100 scale (0 no effect, 100 complete control), approx. 10 d; for Plant response rating, Galium: Postemergence, 500 g ai/ha, 0 to 100 scale where 0 is no effect and 100 is complete control
Method in brief: (§2)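 Seeds sprayed preemergence with a directed soil spray, or plants at 2 to 10 cm height and one- to two-leaf stage sprayed postemergence, with test chemicals in a non-phytotoxic solvent mixture containing surfactant, in loam soil–sand blend. Injury rated visually against untreated controls after about 10 d in greenhouse, 0 (no effect) to 100 (complete control).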

[6] = test system: giant foxtail (Setaria faberii); experiment: Test A postemergence; conditions: for Foxtail, Giant plant response rating: 125 g ai/ha, postemergence, visual injury rating on 0 to 100 scale (0 no effect, 100 complete control), approx. 10 d; for Plant response rating, Foxtail, Giant: Postemergence, 500 g ai/ha, 0 to 100 scale where 0 is no effect and 100 is complete control
Method in brief: as §2

[7] = test system: corn (Zea mays); experiment: Test A postemergence; conditions: for Corn plant response rating: 125 g ai/ha, postemergence, visual injury rating on 0 to 100 scale (0 no effect, 100 complete control), approx. 10 d; for Plant response rating, Corn: Postemergence, 500 g ai/ha, 0 to 100 scale where 0 is no effect and 100 is complete control
Method in brief: as §2

[8] = test system: ryegrass, Italian (Italian ryegrass, Lolium multiflorum); experiment: Test A postemergence; conditions: for Ryegrass, Italian plant response rating: 125 g ai/ha, postemergence, visual injury rating on 0 to 100 scale (0 no effect, 100 complete control), approx. 10 d; for Plant response rating, Ryegrass, Italian: Postemergence, 500 g ai/ha, 0 to 100 scale where 0 is no effect and 100 is complete control
Method in brief: as §2

[9] = test system: Kochia (Kochia scoparia); experiment: Test A postemergence; conditions: for Kochia plant response rating: 125 g ai/ha, postemergence, visual injury rating on 0 to 100 scale (0 no effect, 100 complete control), approx. 10 d; for Plant response rating, Kochia: Postemergence, 500 g ai/ha, 0 to 100 scale where 0 is no effect and 100 is complete control
Method in brief: as §2

[10] = test system: barnyardgrass (Echinochloa crus-galli); experiment: Test A postemergence; conditions: for Barnyardgrass plant response rating: 125 g ai/ha, postemergence, visual injury rating on 0 to 100 scale (0 no effect, 100 complete control), approx. 10 d; for Plant response rating, Barnyardgrass: Postemergence, 500 g ai/ha, 0 to 100 scale where 0 is no effect and 100 is complete control
Method in brief: as §2

[11] = test system: ragweed (common ragweed, Ambrosia elatior); experiment: Test A postemergence; conditions: for Ragweed plant response rating: 125 g ai/ha, postemergence, visual injury rating on 0 to 100 scale (0 no effect, 100 complete control), approx. 10 d; for Plant response rating, Ragweed: Postemergence, 500 g ai/ha, 0 to 100 scale where 0 is no effect and 100 is complete control
Method in brief: as §2

[12] = test system: blackgrass (Alopecurus myosuroides); experiment: Test A postemergence; conditions: for Blackgrass plant response rating: 125 g ai/ha, postemergence, visual injury rating on 0 to 100 scale (0 no effect, 100 complete control), approx. 10 d; for Plant response rating, Blackgrass: Postemergence, 500 g ai/ha, 0 to 100 scale where 0 is no effect and 100 is complete control
Method in brief: as §2

[13] = test system: pigweed (Amaranthus retroflexus); experiment: Test A postemergence; conditions: for Pigweed plant response rating: 125 g ai/ha, postemergence, visual injury rating on 0 to 100 scale (0 no effect, 100 complete control), approx. 10 d; for Plant response rating, Pigweed: Postemergence, 500 g ai/ha, 0 to 100 scale where 0 is no effect and 100 is complete control
Method in brief: as §2

[14] = test system: wheat (Triticum aestivum); experiment: Test A postemergence; conditions: for Wheat plant response rating: 125 g ai/ha, postemergence, visual injury rating on 0 to 100 scale (0 no effect, 100 complete control), approx. 10 d; for Plant response rating, Wheat: Postemergence, 500 g ai/ha, 0 to 100 scale where 0 is no effect and 100 is complete control
Method in brief: as §2

[15] = test system: giant foxtail (Setaria faberii); experiment: Test A preemergence; conditions: Preemergence; for Plant response rating, Foxtail, Giant: 125 g ai/ha, visual injury after approximately 10 d, 0 to 100 scale where 0 is no effect and 100 is complete control; for Foxtail, Giant plant response rating (0 to 100 scale, 0 is no effect, 100 is complete control): 500 g ai/ha, visual injury approx. 10 d
Method in brief: as §2

[16] = test system: ryegrass, Italian (Italian ryegrass, Lolium multiflorum); experiment: Test A preemergence; conditions: Preemergence; for Plant response rating, Ryegrass, Italian: 125 g ai/ha, visual injury after approximately 10 d, 0 to 100 scale where 0 is no effect and 100 is complete control; for Ryegrass, Italian plant response rating (0 to 100 scale, 0 is no effect, 100 is complete control): 500 g ai/ha, visual injury approx. 10 d
Method in brief: as §2

[17] = test system: Kochia (Kochia scoparia); experiment: Test A preemergence; conditions: Preemergence; for Plant response rating, Kochia: 125 g ai/ha, visual injury after approximately 10 d, 0 to 100 scale where 0 is no effect and 100 is complete control; for Kochia plant response rating (0 to 100 scale, 0 is no effect, 100 is complete control): 500 g ai/ha, visual injury approx. 10 d
Method in brief: as §2

[18] = test system: barnyardgrass (Echinochloa crus-galli); experiment: Test A preemergence; conditions: Preemergence; for Plant response rating, Barnyardgrass: 125 g ai/ha, visual injury after approximately 10 d, 0 to 100 scale where 0 is no effect and 100 is complete control; for Barnyardgrass plant response rating (0 to 100 scale, 0 is no effect, 100 is complete control): 500 g ai/ha, visual injury approx. 10 d
Method in brief: as §2

[19] = test system: ragweed (common ragweed, Ambrosia elatior); experiment: Test A preemergence; conditions: Preemergence; for Plant response rating, Ragweed: 125 g ai/ha, visual injury after approximately 10 d, 0 to 100 scale where 0 is no effect and 100 is complete control; for Ragweed plant response rating (0 to 100 scale, 0 is no effect, 100 is complete control): 500 g ai/ha, visual injury approx. 10 d
Method in brief: as §2

[20] = test system: pigweed (Amaranthus retroflexus); experiment: Test A preemergence; conditions: Preemergence; for Plant response rating, Pigweed: 125 g ai/ha, visual injury after approximately 10 d, 0 to 100 scale where 0 is no effect and 100 is complete control; for Pigweed plant response rating (0 to 100 scale, 0 is no effect, 100 is complete control): 500 g ai/ha, visual injury approx. 10 d

Structure (SMILES)	Plant response rating, Sedge, Umbrella [1]	Plant response rating, Barnyardgrass [2]	Plant response rating, Ducksalad [3]	Plant response rating, Rice [4]	Galium plant response rating [5]	Plant response rating, Galium [5]	Foxtail, Giant plant response rating [6]	Plant response rating, Foxtail, Giant [6]	Corn plant response rating [7]	Plant response rating, Corn [7]	Ryegrass, Italian plant response rating [8]	Plant response rating, Ryegrass, Italian [8]	Kochia plant response rating [9]	Plant response rating, Kochia [9]	Barnyardgrass plant response rating [10]	Plant response rating, Barnyardgrass [10]	Ragweed plant response rating [11]	Plant response rating, Ragweed [11]	Blackgrass plant response rating [12]	Plant response rating, Blackgrass [12]	other results
O=C1NCC(c2cc(F)cc(C(F)(F)F)c2)C1C(=O)Nc1ccccc1F (stereo not drawn) [Compound 489]	0	65	100	20	0	40	90	90	70	80	30	50	0	40	90	90	0	30	50	70	Pigweed plant response rating [13]: 0; Plant response rating, Pigweed [13]: 20; Wheat plant response rating [14]: 30; Plant response rating, Wheat [14]: 70; Plant response rating, Foxtail, Giant [15]: 90; Foxtail, Giant plant response rating (0 to 100 scale, 0 is no effect, 100 is complete control) [15]: 90; Plant response rating, Ryegrass, Italian [16]: 30; Ryegrass, Italian plant response rating (0 to 100 scale, 0 is no effect, 100 is complete control) [16]: 20; Plant response rating, Kochia [17]: 20; Kochia plant response rating (0 to 100 scale, 0 is no effect, 100 is complete control) [17]: 50; Plant response rating, Barnyardgrass [18]: 90; Barnyardgrass plant response rating (0 to 100 scale, 0 is no effect, 100 is complete control) [18]: 90; Plant response rating, Ragweed [19]: 30; Ragweed plant response rating (0 to 100 scale, 0 is no effect, 100 is complete control) [19]: 30; Plant response rating, Pigweed [20]: 0; Pigweed plant response rating (0 to 100 scale, 0 is no effect, 100 is complete control) [20]: 40
O=C1NCC(c2ccc(F)cc2F)C1C(=O)Nc1ccc(F)cc1F (racemic) [Compound 518]	0	0	65	0	0	20	20	70	0	0	0	0	0	0	0	50	0	0	0	0	Pigweed plant response rating [13]: 0; Plant response rating, Pigweed [13]: 0; Wheat plant response rating [14]: 0; Plant response rating, Wheat [14]: 0; Plant response rating, Foxtail, Giant [15]: 70; Foxtail, Giant plant response rating (0 to 100 scale, 0 is no effect, 100 is complete control) [15]: 90; Plant response rating, Ryegrass, Italian [16]: 0; Ryegrass, Italian plant response rating (0 to 100 scale, 0 is no effect, 100 is complete control) [16]: 0; Plant response rating, Kochia [17]: 0; Kochia plant response rating (0 to 100 scale, 0 is no effect, 100 is complete control) [17]: 0; Plant response rating, Barnyardgrass [18]: 0; Barnyardgrass plant response rating (0 to 100 scale, 0 is no effect, 100 is complete control) [18]: 60; Plant response rating, Ragweed [19]: 0; Ragweed plant response rating (0 to 100 scale, 0 is no effect, 100 is complete control) [19]: 0; Plant response rating, Pigweed [20]: 0; Pigweed plant response rating (0 to 100 scale, 0 is no effect, 100 is complete control) [20]: 0

Reference: patent US12077503B2, “Substituted cyclic amides and their use as herbicides” (FMC CORPORATION, priority 2015, dated 2024)
